{"source": "patent US20110054028A1", "about": "“SUPPLEMENT FOR REDUCING HIV TR[…] METHOD THEREOF” (priority 2009, published 2011)", "system": "HIV-1 (NL4-3) viral release in HeLa cells", "experiment": "HIV-1 viral release in HeLa cells transfected with NL4-3 (p24 antigen assay)", "type": "cell-based", "conditions": "HeLa cells expressing NL4-3", "protocol": "HeLa cells at 50% confluency in P25 flasks were transiently transfected with 2-3 μg of one of the HIV-1 proviral constructs (pNL4-3; pNL4-3/Udel). One-tenth of the culture media was retrieved from each sample and filtered through a 0.22-μm syringe filter at each time point. Cells were collected at the end and subjected to whole-cell lysis by 1% SDS. The viral content in culture media and in cell lysates was determined by Coulter HIV-1 p24 Antigen Assay kit. Virus release was compared to that from the control (co-transfection of pNL4-3 and pCGI). Data are expressed as mean±SEM from 8 independent experiments.\nFor the inhibitory effects of K2P channel, different quantities (0.02-10 μM) of arachidonic acid (Sigma) were tested in HeLa cell culture at the 24th hour post-transfection of NL4-3, and one-tenth of the media was retrieved and filtered at each time point. Viral release was compared to that of the untreated HeLa cell set at 100% (control).\nReferring to FIG. 3, the inhibitory effects of HIV-1 viral release in HeLa cells at the 4th hour after arachidonic acid (AA) supplementation were shown. […] Moreover, 50-60% of the release inhibition could be achieved by AA at 0.5×10^−7˜10^−6 M."}
{"smiles": "CCCCC/C=C\\C/C=C\\C/C=C\\C/C=C\\CCCC(=O)O", "note": "[AA, arachidonic acid]", "values": [{"measurement": "release inhibition (HIV-1 viral release)", "setting": "4th hour after AA supplementation, AA at 0.5×10^−7˜10^−6 M, untreated HeLa cell set at 100%", "result": "50-60%"}, {"measurement": "suppression of viral release", "setting": "submicromolar concentrations, 4th hour after supplementation", "result": "could suppress viral release"}]}
